Series [1] concerns premalignant (1799, 1198) and malignant (1170) HBE cell lines. In words: MTT assay, growth of premalignant and malignant HBE cell lines. In kind it is cell-based. The settings on record: premalignant and malignant HBE cells; unpublished data. The source says: Cells and Cell Cultures. […] Tumors developed 6 months later. […] (Klein-Szanto et al., 1992).
For orientation: Tetrazolium assays rely on reduction of a dye to a coloured formazan, in cell work by metabolically active cells.

In a further series the test system is NHBE. In words: MTT assay, growth inhibition / viability of normal HBE cells.
The subject of series [2] is ovarian, breast and lung cancers. The settings on record: cited from earlier work.
For the next series, the system named is H460. In words: MTT assay, growth inhibition by deguelin or deguelin derivatives. As to conditions: 3 days. In kind it is cell-based.
For the next series, the system named is H358. The description is as above. As to conditions: 3 days. The class given is cell-based.
The next series relates to H596. The series is described as above. In kind it is cell-based. The settings on record: 3 days.
Another series has as its system H322. The series is described as above. In kind it is cell-based. The settings on record: 3 days.
Another series has as its system H1299. Described as above. As to conditions: 3 days. The class given is cell-based.
The next series has as its system A549. The description is as above. As to conditions: 3 days. In kind it is cell-based.
Another series deals with NSCLC cells. Briefly: MTT assay, growth inhibition of NSCLC cells by deguelin and deguelin derivatives (Table 2, FIG. 7). The class given is cell-based. As to conditions: 0.01-1 μM, 3 days.
For series [3], the system named is genes controlled by the TPA response element (TRE). The settings on record: cited from earlier work.

Values joined by “and” are separate entries in the source; they are usually repeats but may differ in a detail not shown here. Equal entries are not always repeated. Where two headings read alike, the source gives them in different places.

Description for NHBE: Cells and Cell Cultures. […] Normal HBE (NHBE) cells were purchased from Clontech (Palo Alto, Calif.). […] Cells were grown on tissue culture plasticware (Falcon; Bector, Dickinson, Bedford, Mass.) at 37° C. in a humidified atmosphere with 5% C02. For the analyses of growth inhibition, cell cycle, and induction of apoptosis by deguelin, NHBE cells, HBE cell lines, and squamous HBE cells were cultured in KSFM (Life Technologies) containing 2 μg/ml of EGF and bovine pitutary extract.
Cell Treatment with Deguelin and Determination of Growth Inhibition. To measure the effects of deguelin on cell proliferation, NHBE, 1799 cells, 1198 cells, and 1170 cells were transferred onto 96-well plates at densities ranging from 2×10^3 to 4×10^3 cells/well. After 1 day, the cells were changed to the fresh medium containing various concentrations of deguelin dissolved in DMSO (final concentration, 0.1%). Control cultures received 0.1% dimethyl sulfoxide (DMSO) as did the deguelin-treated cultures. […] After 1 day of infection, cells were treated with 10^−7 M or 10^−6 M of deguelin, or 0.1% DMSO as a control, and then incubated for 2 days. […] Six replicate wells were used for each analysis.

With `O=c1cc(N2CCOCC2)oc2c(-c3ccccc3)cccc12` [LY294002, reference compound], in series [1], the “concentration required to induce detectable cell growth inhibition” value is given as “more than 10 μM”. In addition, in the series on NHBE, the “cytotoxicity on NHBE cells” value is given as “significant cytotoxicity”.
Turning to `CC(=O)O[C@H]1C(=O)[C@@]2(C)[C@H]([C@H](OC(=O)c3ccccc3)[C@]3(O)C[C@H](OC(=O)[C@H](O)[C@@H](NC(=O)c4ccccc4)c4ccccc4)C(C)=C1C3(C)C)[C@]1(OC(C)=O)CO[C@@H]1C[C@@H]2O` [taxol, Paclitaxel], the values for the response rate in [2] (advanced drug refractory ovarian cancer), in series [2] (previously treated metastatic breast cancer) and in series [2] (various lung cancers) were 19-36%, 27-62% and 21-37%, respectively.
Turning to methoxyrot-2′-enoic acid, the “% control” value was 0.11% with H460 (H460, 0.01 μM); 0.08% with H460 (H460, 0.1 μM); 0.16% with H460 (H460, 0.5 μM); 0.17% in the series with H460 (H460, 1 μM); 69% in the series with H358 (H358, 0.01 μM); 29% in the series with H358 (H358, 0.1 μM). The “% control” value in the series with H358 (H358, 0.5 μM) is reported as 34%; in the series on H358 (H358, 1 μM) it was 36%; with H596 (H596, 0.01 μM) it was 6%; in the series on H596 (H596, 0.1 μM), 20%; in the series with H596 (H596, 0.5 μM) it was 23%; in the series on H596 (H596, 1 μM), 26%. In addition, the “% control” value in the series with H322 (H322, 0.01 μM) was determined as 97%; in the series on H322 (H322, 0.1 μM), 55%; in the series on H322 (H322, 0.5 μM) it was 43%; with H322 (H322, 1 μM), 40%; in the series with H1299 (H1299, 0.01 μM), 0.48%; in the series on H1299 (H1299, 0.1 μM) it was 0.29%. Further, the “% control” value was 0.25% in the series with H1299 (H1299, 0.5 μM) and 0.22% in the series with H1299 (H1299, 1 μM). Besides, the “MTT assay reading, Average” value in the series on H460 (H460, 0.01 μM) was 0.1897; in the series on H460 (H460, 0.1 μM) it was 0.1399; in the series with H460 (H460, 0.5 μM), 0.2786; in the series with H460 (H460, 1 μM) it was 0.2933; in the series with H358 (H358, 0.01 μM), 0.5804; in the series on H358 (H358, 0.1 μM) it was 0.2433. Moreover, the “MTT assay reading, Average” value with H358 (H358, 0.5 μM) is recorded as 0.2884; in the series with H358 (H358, 1 μM), 0.3047; with H596 (H596, 0.01 μM), 0.0931; in the series with H596 (H596, 0.1 μM), 0.3181; in the series on H596 (H596, 0.5 μM), 0.3653; with H596 (H596, 1 μM), 0.405. Further, the “MTT assay reading, Average” value in the series with H322 (H322, 0.01 μM) is reported as 0.8434; in the series on H322 (H322, 0.1 μM), 0.4803; with H322 (H322, 0.5 μM), 0.3787; in the series with H322 (H322, 1 μM), 0.3461; with H1299 (H1299, 0.01 μM), 0.7507; in the series with H1299 (H1299, 0.1 μM), 0.4579. Further, the “MTT assay reading, Average” value is 0.3934 in the series on H1299 (H1299, 0.5 μM); 0.3396 with H1299 (H1299, 1 μM); 0.2983 in the series on A549 (A549, 0.01 μM); 0.6833 in the series on A549 (A549, 0.1 μM); 0.5794 with A549 (A549, 0.5 μM); 0.6031 in the series on A549 (A549, 1 μM). The “MTT assay reading, individual replicate” value in the series on H460 (H460, 0.01 μM) was 0.037 and 0.62 and 0.096 and 0.098 and 0.122 and 0.16 and 0.195; with H460 (H460, 0.1 μM), 0.139 and 0.105 and 0.129 and 0.16 and 0.133 and 0.147 and 0.166; in the series with H460 (H460, 0.5 μM), 0.297 and 0.26 and 0.302 and 0.283 and 0.291 and 0.282 and 0.235; in the series with H460 (H460, 1 μM), 0.276 and 0.322 and 0.282 and 0.298 and 0.311 and 0.29 and 0.274; in the series on H358 (H358, 0.01 μM), 0.414 and 0.525 and 0.579 and 0.603 and 0.68 and 0.612 and 0.65; with H358 (H358, 0.1 μM), 0.196 and 0.173 and 0.287 and 0.284 and 0.293 and 0.247 and 0.223. Besides, the “MTT assay reading, individual replicate” value in the series with H358 (H358, 0.5 μM) was 0.212 and 0.331 and 0.284 and 0.282 and 0.478 and 0.2 and 0.232; in the series on H358 (H358, 1 μM), 0.283 and 0.248 (2×) and 0.306 and 0.3 and 0.343 and 0.405; in the series with H596 (H596, 0.01 μM), 0.037 and 0.055 and 0.067 and 0.122 and 0.101 and 0.118; with H596 (H596, 0.1 μM) it was 0.287 and 0.3 and 0.326 and 0.366 and 0.289 and 0.321 and 0.338; with H596 (H596, 0.5 μM), 0.28 and 0.434 and 0.344 and 0.446 and 0.348 and 0.383 and 0.322; in the series on H596 (H596, 1 μM), 0.422 and 0.37 and 0.481 and 0.573 and 0.319 and 0.328 and 0.342. Besides, the “MTT assay reading, individual replicate” value in the series on H322 (H322, 0.01 μM) is 0.729 and 0.806 and 0.748 and 0.791 and 0.898 and 1.011 and 0.921; with H322 (H322, 0.1 μM), 0.322 and 0.412 and 0.406 and 0.52 and 0.585 and 0.58 and 0.537; with H322 (H322, 0.5 μM), 0.32 and 0.314 and 0.388 and 0.393 and 0.466 and 0.443 and 0.327; in the series on H322 (H322, 1 μM) it was 0.271 and 0.348 and 0.409 and 0.352 and 0.361 and 0.324 and 0.358; in the series on H1299 (H1299, 0.01 μM), 0.707 and 0.725 and 0.796 and 0.793 and 0.86 and 0.656 and 0.718; with H1299 (H1299, 0.1 μM), 0.401 and 0.474 and 0.434 and 0.387 and 0.526 and 0.465 and 0.518. The “MTT assay reading, individual replicate” value in the series with H1299 (H1299, 0.5 μM) is 0.425 and 0.405 and 0.342 and 0.497 and 0.278 and 0.503 and 0.304; in the series on H1299 (H1299, 1 μM) it was 0.29 and 0.384 and 0.395 and 0.301 and 0.289 and 0.346 and 0.372; in the series on A549 (A549, 0.01 μM) it was 0.286 and 0.219 and 0.272 and 0.298 and 0.36 and 0.344 and 0.309; with A549 (A549, 0.1 μM), 0.693 and 0.467 and 0.636 and 0.687 and 0.753 and 0.796 and 0.751; in the series with A549 (A549, 0.5 μM) it was 0.542 and 0.837 and 0.514 and 0.534 and 0.588 and 0.579 and 0.462; in the series with A549 (A549, 1 μM), 0.783 and 0.583 and 0.67 and 0.758 and 0.515 and 0.477 and 0.436. For the same compound, in the series with NSCLC cells, the “inhibiting cell growth in NSCLC cells, ranking among the derivatives” value is on record as “most effective”.
As to `N#CC(=C(N)Sc1ccccc1N)C(C#N)=C(N)Sc1ccccc1N` [U0126, 1,4diamino-2,3-dicyano-1,4 bis[2-aminophenylthio]butadiene], the “concentration inhibiting PMA-induction of TRE-controlled genes” value in series [3] was 1 to 2 µM.

The values are drawn from patent publication US20060128792A1, “Deguelin as a chemopreventive agent for lung cancer” (priority 2002, published 2006).
